This data set in a line: Spectroscopic measurements (absorption, emission, quantum yield, extinction coefficient). The format is physicochemical.
The mark [1] stands for this setting: BDNCA library, difference emission minus absorption.
Where [2] appears, read: BDNCA library, extinction coefficient; in M-1 cm-1 (unit assumed).
[3] abbreviates: BDNCA library, fluorescence emission.

Structures are written as SMILES.

Regarding `COc1ccc(/C=C/c2cc(C)c3n2[B-](F)(F)[N+]2=CC=CC2=C3c2ccc(NC(=O)CCl)cc2)cc1` [BDNCA-110], where the note is “BDNCA library”, the “Qunt. Yield” value came to 0.16. Also, the Abs (BDNCA library, absorption) was 566 nm. Also, under setting [1], the Flu-Abs came out at 30. Also, the ε under setting [2] is on record as 56,568. The Flu under setting [3] is reported as 596.

As to `CC1=CC(/C=C/c2ccc(-c3cncnc3)cc2)=[N+]2C1=C(c1ccc(NC(=O)CCl)cc1)c1cccn1[B-]2(F)F` [BDNCA-199], the “Qunt. Yield” value (BDNCA library) is on record as 0.15. Where the note is “BDNCA library, absorption”, this compound came in with an Abs of 563 nm. Under setting [1], the Flu-Abs came out at 20. Besides, the ε under setting [2] was 59,314. The Flu under setting [3] is given as 583.

As to `CC1=CC(/C=C/c2ccoc2)=[N+]2C1=C(c1ccc(NC(=O)CCl)cc1)c1cccn1[B-]2(F)F` [BDNCA-71], the “Qunt. Yield” value (BDNCA library) stood at 0.05. The Abs (BDNCA library, absorption) is 550 nm. For the same compound, under setting [1], the Flu-Abs is listed as 20. Moreover, under setting [2], the ε was 43,661. The same compound displayed a Flu under setting [3] of 570.

With `CC1=CC(/C=C/c2ccccc2OC(F)(F)F)=[N+]2C1=C(c1ccc(NC(=O)CCl)cc1)c1cccn1[B-]2(F)F` [BDNCA-365], for the setting “absorption maximum, BDNCA library”, the Abs amounted to 553 nm. Under “difference of emission and absorption maxima”, this compound showed a Flu-Abs of 16. For the setting “extinction coefficient, BDNCA library; in M-1 cm-1 (unit assumed)”, the ε is recorded as 45,584. The compound also gave a Flu (fluorescence emission maximum, BDNCA library) of 569. Further, the “Qunt. Yield” value (quantum yield, BDNCA library) was determined as 0.07.

On to `COc1cccc(Oc2ccccc2/C=C/C2=[N+]3C(=C(c4ccc(NC(=O)CCl)cc4)c4cccn4[B-]3(F)F)C(C)=C2)c1` [BDNCA-298], for which, under “BDNCA library”, the “Qunt. Yield” value worked out at 0.14. Moreover, under “BDNCA library, absorption”, the Abs worked out at 558 nm. In addition, the Flu-Abs under setting [1] is 23. Also, under setting [2], the ε was 67,277. Further, the Flu under setting [3] was 581.

For the compound `COc1cc(/C=C/C2=[N+]3C(=C(c4ccc(NC(=O)CCl)cc4)c4cccn4[B-]3(F)F)C(C)=C2)cc(I)c1OC` [BDNCA-242], the “Qunt. Yield” value (BDNCA library) is recorded as 0.14. For the setting “BDNCA library, absorption”, this compound came in with an Abs of 561 nm. Further, under setting [1], the Flu-Abs is 25. Under setting [2], the ε was 70,847. Besides, the Flu under setting [3] turned out to be 586.

Take `Cc1cc(/C=C/c2ccc3c4c(cccc24)CC3)n2c1C(c1ccc(NC(=O)CCl)cc1)=C1C=CC=[N+]1[B-]2(F)F` [BDNCA-89]: where the note is “BDNCA library”, the “Qunt. Yield” value is given as 0.08. In addition, the Abs (BDNCA library, absorption) was 580 nm. This compound had a Flu-Abs under setting [1] of 54. Further, the ε under setting [2] is recorded as 33,501. This compound showed a Flu under setting [3] of 634.

As for `CC1=CC(/C=C/c2cc(Cl)cc(Cl)c2O)=[N+]2C1=C(c1ccc(NC(=O)CCl)cc1)c1cccn1[B-]2(F)F` [BDNCA-57], the “Qunt. Yield” value (BDNCA library) came out at 0.02. The Abs (BDNCA library, absorption) worked out at 561 nm. Besides, the Flu-Abs under setting [1] is on record as 16. Under setting [2], the ε was 23,066. Under setting [3], this compound returned a Flu of 577.

For `CC1=CC(/C=C/c2ccccc2)=[N+]2C1=C(c1ccc(NC(=O)CCl)cc1)c1cccn1[B-]2(F)F` [BDNCA-27], for the setting “BDNCA library”, the “Qunt. Yield” value is on record as 0.11. For the same compound, for the setting “BDNCA library, absorption”, the Abs was 554 nm. For the same compound, under setting [1], the Flu-Abs was determined as 23. Further, the ε under setting [2] is on record as 73,318. This compound also had a Flu under setting [3] of 577.

Turning to `CC1=CC(/C=C/c2ccc(-n3ccnc3)cc2)=[N+]2C1=C(c1ccc(NC(=O)CCl)cc1)c1cccn1[B-]2(F)F` [BDNCA-8], for the setting “BDNCA library”, the “Qunt. Yield” value stood at 0.04. The Abs (BDNCA library, absorption) turned out to be 562 nm. This compound also returned a Flu-Abs under setting [1] of 20. In addition, the ε under setting [2] is recorded as 29,108. In addition, the Flu under setting [3] came to 582.

Regarding `CC1=CC(/C=C/c2c(C)c(C)c(C)c(C)c2C)=[N+]2C1=C(c1ccc(NC(=O)CCl)cc1)c1cccn1[B-]2(F)F` [BDNCA-67], the “Qunt. Yield” value (BDNCA library) stood at 0.12. Further, the Abs (BDNCA library, absorption) turned out to be 542 nm. This compound also had a Flu-Abs under setting [1] of 40. In addition, the ε under setting [2] was 36,522. Besides, the Flu under setting [3] is recorded as 582.

Consider `CC1=CC(/C=C/c2ccc(O)cc2)=[N+]2C1=C(c1ccc(NC(=O)CCl)cc1)c1cccn1[B-]2(F)F` [BDNCA-153], for which the “Qunt. Yield” value (BDNCA library) is on record as 0.05. For the same compound, under “BDNCA library, absorption”, the Abs was found to be 569 nm. Besides, the Flu-Abs under setting [1] came out at 37. Besides, the ε under setting [2] is 23,341. The compound further registered a Flu under setting [3] of 606.

(Values after patent publication US9423396B2, “Bodipy structure fluorescence probes for diverse biological applications” (National University of Singapore, priority 2011, dated 2016).)
